system: recombinant rabies virus 1088 strain expressing Gaussia Luciferase (GLuc) (1088/GLuc); type: cell-based; conditions: read-out: Anti-rabies activity

Compound | IC50
N=C(N)NCCC[C@@H]1[C@@H]2[C@@H]3CN[C@@]1(C(=O)NCc1ccccc1)C[C@@H]3CN2Cc1cccc2ccccc12 [IF-236] | 10 to 30 µM
NC(=O)CN1C[C@@H]2C[C@@H]3CN[C@]2(C(=O)NCc2ccc(F)cc2)[C@@H]1[C@@H]3CCc1ccccc1 [IB-95] | < 5 µM
CC(C)CC[C@@H]1[C@@H]2[C@@H]3CN[C@@]1(C(=O)NCc1ccccc1)C[C@@H]3CN2CC1CCCCC1 [IF-740] | 10 to 30 µM
N=C(N)NCCCN1C[C@@H]2C[C@@H]3CN[C@]2(C(=O)NCc2ccccc2)[C@@H]1[C@@H]3Cc1cccc2ccccc12 [IB-300] | 10 to 30 µM
O=C(O)CCN1C[C@H]2C[C@]3(C(=O)NCCO)NC[C@H]2[C@H]1[C@H]3Cc1cccc2ccccc12 [IF-452] | 10 to 30 µM
CC(C)CNC(=O)[C@@]12C[C@@H]3CN(CCc4ccccc4)[C@@H]([C@@H]3CN1)[C@H]2CC(C)C [IF-738] | 10 to 30 µM
CCN1C[C@H]2C[C@H]3CN(Cc4ccc(C)cc4)[C@@H]([C@@H]2CC(C)C)[C@]31C(=O)NCc1ccccc1 (relative stereo) [IB-880] | < 5 µM
CC(C)C[C@@H]1[C@@H]2CN[C@@]3(C(=O)NCc4ccccc4)[C@@H](C2)CN(CC(C)C)[C@@H]13 (relative stereo) [IB-5] | 10 to 30 µM
O=C(NCCO)[C@@]12C[C@@H]3CN(Cc4ccc(F)cc4)[C@@H]([C@@H]3CN1)[C@H]2Cc1cccc2ccccc12 [IF-620] | < 5 µM
CC(C)NC(=O)[C@]12NC[C@H]3C[C@H]1CN(CCCNC(=N)N)[C@H]2[C@@H]3CCc1ccccc1 [IB-179] | 10 to 30 µM
CC(C)CCNC(=O)[C@@]12C[C@@H]3CN(Cc4ccc(F)cc4)[C@@H]([C@@H]3CN1)[C@H]2Cc1ccccc1 (relative stereo) [IF-584] | < 5 µM
O=C(NCc1ccc(O)cc1)[C@]12NC[C@H]3C[C@H]1CN(Cc1cccc4ccccc14)[C@H]2[C@@H]3Cc1cccc2ccccc12 [IB-417] | 10 to 30 µM
Cc1cccc(CNC(=O)[C@]23NC[C@@H]4C[C@H]2CN(CC(C)C)[C@H]3[C@@H]4Cc2ccccc2)c1 (relative stereo) [IB-15] | 10 to 30 µM
CC(C)C[C@@H]1[C@@H]2[C@@H]3CN[C@@]1(C(=O)NCc1ccc(F)cc1)C[C@@H]3CN2Cc1ccccc1 [IF-807] | < 5 µM
CC(C)CCN1C[C@@H]2C[C@@H]3CN[C@]2(C(=O)NCCO)[C@@H]1[C@@H]3Cc1cccc2ccccc12 [IB-659] | < 5 µM
CC(C)CN1C[C@H]2C[C@]3(C(=O)NCc4ccc(O)cc4)NC[C@H]2[C@H]1[C@H]3Cc1cccc2ccccc12 [IF-500] | 10 to 30 µM
CC(C)C[C@@H]1[C@H]2CN[C@@]3(C(=O)NCc4cccc5ccccc45)[C@@H](C2)CN(CCC(=O)O)[C@@H]13 [IB-392] | 10 to 30 µM
NC(=O)CCNC(=O)C12NCC3CC1CN(CC1CCCCC1)C2C3Cc1cccc2ccccc12 (stereo not drawn) [IB-522] | 10 to 30 µM
CC(C)CCC1C2C=NC3(C(=O)NCc4ccccc4)C(C2)CN(Cc2ccc(O)cc2)C13 (stereo not drawn) [IIB-101] | 5 to 10 µM
O=C(NCc1ccc(O)cc1)[C@@]12C[C@@H]3CN(CC4CCCCC4)[C@@H]([C@@H]3CN1)[C@H]2CCc1ccccc1 [IF-475] | 10 to 30 µM
CC(C)C[C@@H]1[C@@H]2CN[C@@]3(C(=O)NCc4cccc5ccccc45)[C@@H](C2)CN(CCCNC(=N)N)[C@@H]13 (relative stereo) [IB-164, (3S*,3aS*,6R*,7R*,7aS*)-1-(3-guanidinopropyl)-7-isobutyl-N-(naphthalen-1-ylmethyl)octahydro-3aH-3,6-methanopyrrolo[3,2-b]pyridine-3a-carboxamide] | < 5 µM
CC(C)NC(=O)[C@]12NC[C@H]3C[C@H]1CN(Cc1ccc(O)cc1)[C@H]2[C@@H]3Cc1cccc2ccccc12 [IB-502] | < 5 µM

Compound | IC50
CCCCCCNC(=O)[C@]12NC[C@H]3C[C@H]1CN(CC(N)=O)[C@H]2[C@@H]3Cc1cccc2ccccc12 [IB-110] | < 5 µM
CC(C)CNC(=O)[C@@]12C[C@@H]3CN(Cc4cccc5ccccc45)[C@@H]([C@@H]3CN1)[C@H]2CCCNC(=N)N [IF-235] | 10 to 30 µM
CC(C)CC1C2C=NC3(C(=O)NCc4ccc5ccccc5c4)C(C2)CN(Cc2ccccc2)C13 (stereo not drawn) [IIB-102] | < 5 µM
O=C(NCc1ccc(O)cc1)[C@@]12C[C@@H]3CN(CC4CCCCC4)[C@@H]([C@@H]3CN1)[C@H]2Cc1ccccc1 [IF-477] | < 5 µM
O=C(O)CCNC(=O)[C@]12NC[C@H]3C[C@H]1CN(CCO)[C@H]2[C@@H]3Cc1cccc2ccccc12 [IB-610] | 10 to 30 µM
CC(C)C[C@@H]1[C@H]2CN[C@@]3(C(=O)NCc4ccc(O)cc4)[C@@H](C2)CN(Cc2ccc(F)cc2)[C@@H]13 [IB-458] | 10 to 30 µM
CC(C)CCNC(=O)[C@@]12C[C@@H]3CN(CCc4ccccc4)[C@@H]([C@@H]3CN1)[C@H]2Cc1ccccc1 [IF-744] | < 5 µM
CC(C)CCN1C[C@H]2C[C@]3(C(=O)NCc4ccccc4)NC[C@H]2[C@H]1[C@H]3Cc1ccccc1 (relative stereo) [IF-9] | 10 to 30 µM
CC(C)CCN1C[C@H]2C[C@]3(C(=O)NC(C)C)NC[C@H]2[C@H]1[C@H]3CCCNC(=N)N [IF-214] | 10 to 30 µM
O=C(O)CCNC(=O)[C@]12NC[C@H]3C[C@H]1CN(CC1CCCCC1)[C@H]2[C@@H]3Cc1cccc2ccccc12 [IB-614] | 10 to 30 µM
O=C(NCc1ccc(O)cc1)C12NCC3CC1CN(Cc1ccc(F)cc1)C2C3Cc1ccccc1 (stereo not drawn) [IB-583] | 10 to 30 µM
N=C(N)NCCC[C@@H]1[C@@H]2[C@@H]3CN[C@@]1(C(=O)NCc1cccc4ccccc14)C[C@@H]3CN2Cc1ccccc1 [IF-284] | 10 to 30 µM
O=C(NCc1ccc(O)cc1)[C@]12NC[C@H]3C[C@H]1CN(CCO)[C@H]2[C@@H]3Cc1cccc2ccccc12 [IB-470] | 10 to 30 µM
CC(C)CCN1C[C@H]2C[C@]3(C(=O)NCCc4ccccc4)NC[C@H]2[C@H]1[C@H]3Cc1ccc(O)cc1 (relative stereo) [IF-545] | 10 to 30 µM
CC(C)CC1C2C3C=NC1(C(=O)NCc1ccccc1)CC3CN2Cc1ccc(N(C)C)cc1 (stereo not drawn) [IIF-94] | 5 to 10 µM
N=C(N)NCCCN1C[C@@H]2C[C@@H]3CN[C@]2(C(=O)NCc2ccc(F)cc2)[C@@H]1[C@@H]3Cc1ccccc1 [IB-182] | 10 to 30 µM
CC(C)CCN1CC2CC3CNC2(C(=O)NCc2ccc(O)cc2)C1C3CCc1ccccc1 (stereo not drawn) [IB-576] | 10 to 30 µM
NC(=O)CCNC(=O)C12NCC3CC1CN(Cc1cccc4ccccc14)C2C3Cc1ccc(O)cc1 (stereo not drawn) [IB-521] | 10 to 30 µM
CC(C)CNC(=O)C12NCC3CC1CN(CCc1ccccc1)C2C3CCC(=O)O (stereo not drawn) [IB-508] | 10 to 30 µM
O=C(NCc1ccc(O)cc1)[C@@]12C[C@@H]3CN(Cc4cccc5ccccc45)[C@@H]([C@@H]3CN1)[C@H]2Cc1ccccc1 [IF-472] | < 5 µM
N=C(N)NCCCNC(=O)[C@]12NC[C@H]3C[C@H]1CN(Cc1ccccc1)[C@H]2[C@@H]3Cc1cccc2ccccc12 [IB-280] | 10 to 30 µM
CC(C)CCN1C[C@H]2C[C@]3(C(=O)NCCC(=O)O)NC[C@H]2[C@H]1[C@H]3CCc1ccccc1 [IF-830] | 10 to 30 µM

Compound | IC50
Cc1ccc(CN2C[C@@H]3C[C@@H]4CN(C(=O)OCC(C)C)[C@]3(C(=O)NCc3ccccc3)[C@@H]2[C@@H]4CC(C)C)cc1 (relative stereo) [IB-886] | 5 to 10 µM
NC(=O)CCNC(=O)[C@]12NC[C@H]3C[C@H]1CN(CC1CCCCC1)[C@H]2[C@@H]3Cc1ccccc1 [IB-637] | < 5 µM
NC(=O)CN1C[C@@H]2C[C@@H]3CN[C@]2(C(=O)NCCc2ccccc2)[C@@H]1[C@@H]3Cc1cccc2ccccc12 [IB-97] | < 5 µM
CC(C)CNC(=O)[C@@]12C[C@@H]3CN(Cc4cccc5ccccc45)[C@@H]([C@@H]3CN1)[C@H]2CC(C)C [IF-739] | < 5 µM
CC(C)CC1C2C3C=NC1(C(=O)NCc1ccccc1)CC3CN2Cc1ccc(Cl)cc1 (stereo not drawn) [IIF-83] | < 5 µM
CC(C)CC[C@@H]1[C@H]2CN[C@@]3(C(=O)NCCC(N)=O)[C@@H](C2)CN(CCc2ccccc2)[C@@H]13 [IB-342] | 10 to 30 µM
CC(C)C[C@@H]1[C@H]2CN[C@@]3(C(=O)NCCO)[C@@H](C2)CN(Cc2cccc4ccccc24)[C@@H]13 [IB-643] | 10 to 30 µM
CC(C)CCN1CC2CC3(C(=O)NCc4ccc(Cl)cc4)N=CC2C1C3CC(C)C (stereo not drawn) [IIF-103] | 5 to 10 µM
CCCCCCNC(=O)[C@@]12C[C@@H]3CN(CCC(C)C)[C@@H]([C@@H]3CN1)[C@H]2Cc1ccccc1 (relative stereo) [IF-599] | 10 to 30 µM
O=C(O)CCNC(=O)[C@]12NC[C@H]3C[C@H]1CN(Cc1ccccc1)[C@H]2[C@@H]3Cc1cccc2ccccc12 [IB-616] | 10 to 30 µM
CC(C)CC1C2C=NC3(C(=O)NCc4ccccc4)C(C2)CN(Cc2ccc(OC(F)(F)F)cc2)C13 (stereo not drawn) [IIB-96] | 5 to 10 µM
CCCCCCNC(=O)[C@]12NC[C@H]3C[C@H]1CN(CCO)[C@H]2[C@@H]3CCC(C)C [IB-490] | < 5 µM
CC(C)CCN1CC2CC3CNC2(C(=O)NCc2ccc(O)cc2)C1C3Cc1ccccc1 (stereo not drawn) [IB-577] | 10 to 30 µM
CC(C)CNC(=O)[C@@]12C[C@@H]3CN(Cc4ccccc4)[C@@H]([C@@H]3CN1)[C@H]2CCc1ccccc1 [IF-670] | < 5 µM
NC(=O)CCNC(=O)[C@]12NC[C@H]3C[C@H]1CN(Cc1ccc(F)cc1)[C@H]2[C@@H]3Cc1ccccc1 [IB-712] | < 5 µM
CC(C)CCNC(=O)[C@@]12C[C@@H]3CN(Cc4ccc(F)cc4)[C@@H]([C@@H]3CN1)[C@H]2CC(C)C (relative stereo) [IF-585] | < 5 µM
N=C(N)NCCC[C@@H]1[C@@H]2[C@@H]3CN[C@@]1(C(=O)NCc1ccc(F)cc1)C[C@@H]3CN2Cc1cccc2ccccc12 [IF-245] | < 5 µM
CC(C)CCNC(=O)[C@]12NC[C@H]3C[C@H]1CN(CC(N)=O)[C@H]2[C@@H]3CCc1ccccc1 [IB-102] | < 5 µM
NC(=O)C[C@@H]1[C@@H]2[C@@H]3CN[C@@]1(C(=O)NCCO)C[C@@H]3CN2Cc1cccc2ccccc12 [IF-230] | 10 to 30 µM
CCCCCCNC(=O)[C@]12NC[C@H]3C[C@H]1CN(CC(N)=O)[C@H]2[C@@H]3Cc1ccccc1 [IB-105] | 10 to 30 µM
CC(C)CNC(=O)[C@]12NC[C@H]3C[C@H]1CN(Cc1ccc(F)cc1)[C@H]2[C@@H]3CCc1ccccc1 [IB-774] | < 5 µM
Cc1ccc(CN2C[C@H]3C[C@@]4(C(=O)NCc5ccccc5)[C@H](CC(C)C)[C@@H]2[C@@H]3CN4C(=O)NCc2ccccc2)cc1 [IF-864] | 10 to 30 µM

same assay, conditions: read-out: IC50

Compound | IC50
CC(C)C[C@@H]1[C@@H]2CN[C@@]3(C(=O)NCc4ccccc4)[C@@H](C2)CN(CC(C)C)[C@@H]13 (relative stereo) [IB-5] | 18.2 µM
Cc1cccc(CNC(=O)[C@]23NC[C@@H]4C[C@H]2CN(CC(C)C)[C@H]3[C@@H]4Cc2ccccc2)c1 (relative stereo) [IB-15] | 15.9 µM
CC(C)CCN1C[C@H]2C[C@]3(C(=O)NCc4ccccc4)NC[C@H]2[C@H]1[C@H]3Cc1ccccc1 (relative stereo) [IF-9] | 15.6 µM
